Results: patent US10766882B2, “1,2-naphthoquinone based derivative and method of preparing the same” (YUNGJIN PHARM. CO., LTD., priority 2013, dated 2020)

Experiments:
NQO1 protein = NQO1 protein (Homo sapiens, UniProt P15559); test: NQO1 activity measurement (cytochrome C reduction); type: biochemical; conditions: 5 ng NQO1 protein, 200 μM NADH, 77 μM cytochrome C, 37° C., absorbance 550 nm for 10 minutes
C57BL/6J Lep ob/ob mice = test: Weight loss effects in obese mice (ob/ob); type: in vivo; conditions: 100 mg/kg oral, vs 0.1% SLS controls
Description: 10 week-old C57BL/6J Lep ob/ob mice having genetic obesity characteristics available from ORIENTBIO were prepared. Two mice were raised in each polycarbonate breeding cage (200 W×260 L×130H (mm), Three-shine) in which temperature was 20 to 24° C., relative humidity was 35 to 65%, illuminance was 150 to 300 lux, night and day were 12 hours, and exhaust was performed at 10 to 15 air changes per hour. As a feed, low fat diet (11.9 kcal % fat, 5053, Labdiet) manufactured by ORIENTBIO was used. The feed was contained in a feeder and free intake was allowed. As drinking water, water, which was contained in a 250 mL polycarbonate based bottle, purified through a filter and a sterilizer was used and free intake was allowed.
The compound according to Example 1 synthesized in the present invention was orally administered to three C57BL/6J Lep ob/ob mice in amounts of 40 mg/kg, 80 mg/kg, and 120 mg/kg, respectively, once every day for two weeks. For administration, a disposable syringe fitted with a sonde for oral administration was used and 10 ml/kg of the compound was orally administered into the stomach. As controls, three C57BL/6J Lep ob/ob mice were administered 0.1% sodium lauryl sulfate (SLS) in an amount of 120 mg/kg in the same manner as described above. After administration, a time-dependent weight increase ratio, weight change, and intake amount were measured and results are illustrated in FIG. 1 below.
Weights of the experimental animals were measured immediately before administration of a test material and seven times a week from an administration initiation day to a test termination day. Increased total weights were calculated by subtracting weights measured on an experiment initiation day from weights measured one day before an experiment termination day. Food intake amounts were calculated by measuring feed supply amounts and remaining amounts twice a week from an initiation day of test material administration to a test termination day for each individual. […]
(§1) Experiments were performed under the same conditions as in Experimental Example 3-1 except that 15 week-old C57BL/6J Lep ob/ob mice having genetic obesity characteristics available from ORIENTBIO were prepared, the compounds according to Examples 5 and 6 were administered to three C57BL/6J Lep ob/ob mice in an amount of 150 mg/kg, 150 mg/kg of 0.1% SLS was administered to each of three C57BL/6J Lep ob/ob mice as controls, and experiments were performed for a total of one week. Weight increase ratios, weight change, and intake amounts depending on administration time were measured and results are illustrated in FIG. 5 below.
as §1, with “that 10” for “that 15”, “Examples 8, 9,” for “Examples 5”, “and 12” for “and 6”, “FIG. 6” for “FIG. 5”
Experiments were performed under the same conditions as in Experimental Example 3-1 except that 6 week-old C57BL/6J Lep ob/ob mice having genetic obesity characteristics available from ORIENTBIO were prepared, the compounds according to Examples 17, 18, 22, and 23 were administered to three C57BL/6J Lep ob/ob mice in an amount of 100 mg/kg, 100 mg/kg of 0.1% SLS was administered to each of three C57BL/6J Lep ob/ob mice as controls, and experiments were performed for a total of one week. Weight increase ratios, weight change, and intake amounts depending on administration time were measured and results are illustrated in FIG. 10 below. […]

Cells = test: Measurement of lactate change amount within cells; type: cell-based; conditions: PCA extract of cells, lactate measured from supernatant (Megazyme, K-LATE)
Description: Cells were treated with 400 μl of 6% PCA, and then collected and extracted. Centrifugation (13,000 rpm, 10 min) was performed. A precipitate was dried using a Speed-Vac and then a weight of dried precipitate was measured. A supernatant was neutralized using 400 μl of 1 M KOH and a final volume thereof was adjusted to 1 ml using 0.33 M KH2PO4/K2HPO4, pH 7.5. Centrifugation (13,000 rpm, 10 min) was performed and the amount of lactate was measured from a supernatant (Megazyme, K-LATE).

[1] = Exp. Ex. 3-12, FIG. 15: 6 week-old ob/ob mice, two weeks
[2] = Exp. Ex. 3-10, FIG. 13: 6 week-old ob/ob mice, two weeks
[3] = Exp. Ex. 3-11, FIG. 14: 6.5 week-old ob/ob mice, one week
[4] = Exp. Ex. 3-13, FIG. 16: 6 week-old ob/ob mice, one week

Chain of NQO1 protein (P15559 whole entry, species assumed): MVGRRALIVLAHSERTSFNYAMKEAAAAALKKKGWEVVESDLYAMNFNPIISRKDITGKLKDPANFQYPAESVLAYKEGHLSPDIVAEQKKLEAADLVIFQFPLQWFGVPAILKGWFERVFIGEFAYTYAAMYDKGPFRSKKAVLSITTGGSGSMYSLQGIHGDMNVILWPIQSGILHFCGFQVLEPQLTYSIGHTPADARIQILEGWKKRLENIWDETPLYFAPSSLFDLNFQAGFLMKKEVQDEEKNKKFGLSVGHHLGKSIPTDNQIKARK

With CC(C)c1nc2c(n1Cc1ccc(F)cc1)C(=O)C(=O)c1ccccc1-2 [Example 33] the “NQO1 activity (5 μM, [nmol cytochrome C reduced/min/μg protein])” value (NQO1 protein) was 152.5 nmol cytochrome C reduced/min/μg protein, the intake amount (C57BL/6J Lep ob/ob mice; [1]) was “significantly decreased in some sections” and the weight change (C57BL/6J Lep ob/ob mice; [1]) was “significantly decreased in some sections”. For the same compound, the weight increase ratio (C57BL/6J Lep ob/ob mice; [1]) was “significantly decreased in some sections” and the “Lactate change amount within cells (nmol/mg cell)” value (“Lactate change amount within cells” below) (Cells) was 4.7 nmol/mg cell.
With CC(C)c1nc2c(n1C)C(=O)C(=O)c1ccccc1-2 [Example 35] the “NQO1 activity (5 μM, [nmol cytochrome C reduced/min/μg protein])” value (NQO1 protein) was 190.3 nmol cytochrome C reduced/min/μg protein, the intake amount (C57BL/6J Lep ob/ob mice; [2]) was “significantly decreased in some sections” and the weight change (C57BL/6J Lep ob/ob mice; [2]) was “significantly decreased in some sections”. The weight increase ratio (C57BL/6J Lep ob/ob mice; [2]) was “significantly decreased in some sections”, the intake amount (C57BL/6J Lep ob/ob mice; [1]) was “significantly decreased in some sections” and the weight change (C57BL/6J Lep ob/ob mice; [1]) was “significantly decreased in some sections”. For the same compound, the weight increase ratio (C57BL/6J Lep ob/ob mice; [1]) was “significantly decreased in some sections” and the “Lactate change amount within cells” value (Cells) was 8.1 nmol/mg cell.
In the case of CCc1nc2c(n1C)C(=O)C(=O)c1ccccc1-2 [Example 38, 2-ethyl-3-methyl-3H-naphtho[2,1-d]imidazole-4,5-dione], the “NQO1 activity (5 μM, [nmol cytochrome C reduced/min/μg protein])” value (NQO1 protein) is reported as 142.1 nmol cytochrome C reduced/min/μg protein, the intake amount (C57BL/6J Lep ob/ob mice; [3]) is reported as “significantly decreased in some sections” and the weight change (C57BL/6J Lep ob/ob mice; [3]) is reported as “significantly decreased in some sections”. For the same compound, the weight increase ratio (C57BL/6J Lep ob/ob mice; [3]) was “significantly decreased in some sections” and the “Lactate change amount within cells” value (Cells) was 5.2 nmol/mg cell.
CCc1nc2c(n1C)C(=O)C(=O)c1cc(F)ccc1-2 [Example 41, 2-ethyl-7-fluoro-3-methyl-3H-naphtho[2,1-d]imidazole-4,5-dione] was tested, and the “NQO1 activity (5 μM, [nmol cytochrome C reduced/min/μg protein])” value (NQO1 protein) was 148.4 nmol cytochrome C reduced/min/μg protein, the intake amount (C57BL/6J Lep ob/ob mice; [4]) was “significantly decreased in some sections” and the weight change (C57BL/6J Lep ob/ob mice; [4]) was “significantly decreased in some sections”. For the same compound, the weight increase ratio (C57BL/6J Lep ob/ob mice; [4]) was “significantly decreased in some sections” and the “Lactate change amount within cells” value (Cells) was 7.2 nmol/mg cell.
For CCc1nc2c([nH]1)C(=O)C(=O)c1cc(Cl)ccc1-2 [Example 45, 7-chloro-2-ethyl-3H-naphtho[2,1-d]imidazole-4,5-dione], the “NQO1 activity (5 μM, [nmol cytochrome C reduced/min/μg protein])” value (NQO1 protein) was 188.6 nmol cytochrome C reduced/min/μg protein, the intake amount (C57BL/6J Lep ob/ob mice; [4]) was “significantly decreased in some sections” and the weight change (C57BL/6J Lep ob/ob mice; [4]) was “significantly decreased in some sections”. The weight increase ratio (C57BL/6J Lep ob/ob mice; [4]) was “significantly decreased in some sections” and the “Lactate change amount within cells” value (Cells) was 5.7 nmol/mg cell.
Cc1nc2c(n1C)C(=O)C(=O)c1ccccc1-2 [Example 96] was tested, and the “NQO1 activity (5 μM, [nmol cytochrome C reduced/min/μg protein])” value (NQO1 protein) was 21.4 nmol cytochrome C reduced/min/μg protein, the intake amount (C57BL/6J Lep ob/ob mice; [3]) was “significantly decreased in some sections” and the weight change (C57BL/6J Lep ob/ob mice; [3]) was “significantly decreased in some sections”. For the same compound, the weight increase ratio (C57BL/6J Lep ob/ob mice; [3]) was “significantly decreased in some sections” and the “Lactate change amount within cells” value (Cells) was 5.7 nmol/mg cell.
